According to BindingDB's records for patent US10550105 (Ribon Therapeutics, 2020):

Molecular target: T1, Protein mono-ADP-ribosyltransferase TIPARP (Homo sapiens, UniProt Q7Z3E1)
T1 sequence (Q7Z3E1 whole entry): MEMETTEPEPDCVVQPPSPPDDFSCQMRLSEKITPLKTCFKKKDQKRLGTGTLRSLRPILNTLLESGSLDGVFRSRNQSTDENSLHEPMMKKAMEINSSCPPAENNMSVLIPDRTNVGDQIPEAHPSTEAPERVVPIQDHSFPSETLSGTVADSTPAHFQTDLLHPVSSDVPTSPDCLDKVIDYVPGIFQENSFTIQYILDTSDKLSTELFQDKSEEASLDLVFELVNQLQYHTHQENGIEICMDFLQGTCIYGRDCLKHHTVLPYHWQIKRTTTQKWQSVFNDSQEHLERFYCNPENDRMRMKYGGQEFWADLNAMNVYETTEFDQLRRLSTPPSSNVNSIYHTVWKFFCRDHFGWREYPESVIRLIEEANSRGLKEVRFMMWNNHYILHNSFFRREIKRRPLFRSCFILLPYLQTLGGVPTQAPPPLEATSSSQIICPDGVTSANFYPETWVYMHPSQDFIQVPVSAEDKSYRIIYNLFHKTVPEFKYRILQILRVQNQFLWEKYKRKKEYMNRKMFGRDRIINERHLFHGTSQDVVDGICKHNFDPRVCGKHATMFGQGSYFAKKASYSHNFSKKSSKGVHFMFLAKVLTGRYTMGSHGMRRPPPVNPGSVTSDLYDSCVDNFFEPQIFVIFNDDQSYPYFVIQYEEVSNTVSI
Test: Enzymatic Assay for Inhibition of PARP7
Experimental: Displacement of Probe A, a biotinylated probe binding to the TIPARP active site, was measured using a time-resolved fluorescence energy transfer (TR-FRET) assay. 20 nL of a dose response curve of each test compound was spotted in black 384-well polystyrene proxiplates (Perkin Elmer) using a Mosquito (TTP Labtech). Reactions were performed in a 8 μL volume by adding 6 μL of TIPARP and Probe A in assay buffer (20 mM HEPES pH=8, 100 mM NaCl, 0.1% bovine serum albumin, 2 mM DTT and 0.002% Tween20), incubating with test compound at 25° C. for 30 min, then adding 2 μL of ULight-anti 6×His and LANCE Eu-W1024 labeled streptavidin (Perkin Elmer). The final concentrations of TIPARP and Probe A were 6 nM and 2 nM, respectively. […] The Hill Coefficient is normally allowed to float but may also be fixed at 1 in a 3-parameter fit. Y is the % inhibition and x is the compound concentration.

Compound	IC50
O=C(c1cncc(OC[C@H]2c3ccccc3CN2c2cn[nH]c(=O)c2C(F)(F)F)c1)N1CCn2c(nnc2C(F)(F)F)C1 [US10550105, Example 372]	> 1000 nM
C[C@@H](OCCC(=O)N1CCN(c2ccc(C#N)cn2)CC1)[C@@H]1CCCN1c1cn[nH]c(=O)c1C(F)(F)F [US10550105, Example 140B]	in the range around 550 nM
N#Cc1ccc(N2CCN(C(=O)/C=C\COC[C@H]3c4ccccc4CN3c3cn[nH]c(=O)c3C(F)(F)F)CC2)nc1 [US10550105, Example 79C]	< 100 nM

More lines, now with the values ahead:

IC50	Compound
< 100 nM	N#Cc1ccc(N2CCN(C(=O)/C=C\COC[C@@H]3c4ccccc4CN3c3cn[nH]c(=O)c3C(F)(F)F)CC2)nc1 [US10550105, Example 79D]
< 100 nM	O=C(c1cncc(OCC2c3ccccc3CN2c2cn[nH]c(=O)c2C(F)(F)F)c1)N1CCn2ncnc2C1 (stereo not given) [US10550105, Example 398]
